Results published in US9006244B2, “Liver X receptor modulators” (priority 2012, dated 2015).

How the values were obtained:
[1] = molecular target: LXRα ligand binding domain (LBD) (Homo sapiens (Human), UniProt Q13133); test: LXR α radioligand binding assay (SPA, [3H]TO901317 competition)
Protocol: (§1) Poly-lysine SPA beads (50 μg) were added to each well and the total volume was adjusted to 120 μL. The plates were shaken on an orbital shaker for 20 min and then allowed to settle for 10 more minutes at rt before a brief centrifugation at 2,000 rpm for 1 min.

LXRβ = LXRβ (Homo sapiens (Human), UniProt P55055); test: LXR luciferase transcriptional reporter gene assay, Gal4-LXRβ LBD in HEK293 cells; format: cell-based; conditions: pG5-Luc luciferase reporter, 16 h, read-out: LXRβ CELL EC50
Chain of LXRβ (P55055 222-460): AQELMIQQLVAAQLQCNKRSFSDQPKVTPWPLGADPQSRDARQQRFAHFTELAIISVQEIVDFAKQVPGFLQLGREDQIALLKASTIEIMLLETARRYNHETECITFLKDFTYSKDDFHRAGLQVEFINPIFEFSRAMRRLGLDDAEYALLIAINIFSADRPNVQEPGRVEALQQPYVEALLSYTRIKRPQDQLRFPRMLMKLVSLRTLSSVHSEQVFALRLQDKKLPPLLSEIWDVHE
Protocol: (§2) The LXR luciferase transcriptional reporter gene assay measures the ability of LXR ligands to promote transcriptional activation via the ligand binding domain (LBD) of LXR. […] 90% confluent cells from a 150 mm dish were seeded in six 100 mm dishes. The cells were batch-transfected with an expression plasmid containing the Gal4 DNA binding domain fused to either the LBD of LXRα or LXRβ and a luciferase reporter plasmid pG5-Luc (Promega, Madison, Wis.), which has Gal4 response elements upstream of firefly luciferase gene (luc+). […] Five h following transfection, 15 mL of 10% charcoal-treated FBS (Hyclone, #SH30070.03) in DMEM were added to the transfected dishes without removing transfection media, and then incubate the cells at 37° C. overnight. The next day, the cells from the transfected dish were trypsinized, washed with PBS, resuspended in 10% charcoal-treated DMEM media and plated into 96-well plates with 60,000 cells/100 μL per well. The cells were incubated at 37° C. for ˜4 h before addition of 100 μL of test compound or control ligand at different concentrations (final DMSO concentration at 0.2%). Following incubation of the cells for 16 h with substances, the culture media were dumped and Bright-Glo™ luciferase reagent (Promega, Cat. #E2610) was added to lyse the cells and initiate the luciferase reaction. Luminescence, as a measure of luciferase activity, was detected in a plate reader (Victor2, PE-Wallac). Transcriptional activation in the presence of a test substance was expressed as fold-change in luminescence compared to that of cells incubated in the absence of the substance. EC50 values were calculated using the XLfit™ program (IDBS, Guilford, UK).

[2] = molecular target: LXRβ ligand binding domain (LBD) (Homo sapiens (Human), UniProt P55055); test: LXR β radioligand binding assay (SPA, [3H]TO901317 competition); conditions: for selectivity for the LXRβ subtype over the LXRα subtype: LXRβ versus LXRα, statement in the summary
Chain of LXRβ ligand binding domain (LBD) (P55055 222-460): as above
Protocol: as §1

LXRα = LXRα (Homo sapiens (Human), UniProt Q13133); test: LXR luciferase transcriptional reporter gene assay, Gal4-LXRα LBD in HEK293 cells; format: cell-based; conditions: pG5-Luc luciferase reporter, 16 h, read-out: LXRα CELL EC50
Chain of LXRα (Q13133 209-447): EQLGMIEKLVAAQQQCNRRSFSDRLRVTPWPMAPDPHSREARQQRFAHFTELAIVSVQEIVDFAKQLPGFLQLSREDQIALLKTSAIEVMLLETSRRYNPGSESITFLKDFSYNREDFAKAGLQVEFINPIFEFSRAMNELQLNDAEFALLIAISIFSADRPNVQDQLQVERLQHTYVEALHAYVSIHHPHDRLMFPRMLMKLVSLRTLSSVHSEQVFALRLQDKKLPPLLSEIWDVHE
Protocol: as §2

Chain of LXRα ligand binding domain (LBD) (Q13133 209-447): as above

Row | Compound | Ki [1] | EC50 (LXRβ) | Ki [2] | EC50 (LXRα) | selectivity for the LXRβ subtype over the LXRα subtype [2]
1 | CC(C)[C@@H]1c2nc3cc(CO)c(S(C)(=O)=O)cc3n2CCN1c1nccc(C(F)(F)F)n1 (single isomer, unassigned) [Compound E2a] | 318 nM | 13 nM | 20 nM | 340 nM | selective for the LXRβ subtype over the LXRα subtype
2 | CC(C)[C@H]1c2cc3cc(CO)c(S(C)(=O)=O)cc3n2CCN1c1nccc(C(F)(F)F)n1 (single isomer, unassigned) [Compound E4b, (1-isopropyl-7-(methylsulfonyl)-2-(4-(trifluoromethyl)pyrimidin-2-yl)-1,2,3,4-tetrahydropyrazino[1,2-a]indol-8-yl)methanol] | > 3330 nM | > 20000 nM | 846 nM | > 20000 nM | –
3 | CC(C)C1c2nc3ccc(S(C)(=O)=O)cc3n2CCN1c1nccc(C(F)(F)F)n1 (centres unmarked) [Compound E1, 1-isopropyl-7-(methylsulfonyl)-2-(4-(trifluoromethyl)pyrimidin-2-yl)-1,2,3,4-tetrahydrobenzo[4,5]imidazo[1,2-a]pyrazine] | 1770 nM | 313 nM | 256 nM | 3370 nM | –
4 | CC(C)[C@H]1c2cc3ccc(S(C)(=O)=O)cc3n2CCN1c1nccc(C(F)(F)F)n1 (single isomer, unassigned) [Compound E3b, 1-isopropyl-7-(methylsulfonyl)-2-(4-(trifluoromethyl)pyrimidin-2-yl)-1,2,3,4-tetrahydropyrazino[1,2-a]indole] | > 3330 nM | – | – | > 20000 nM | –

More lines, main results first:

Row | Ki [1] | EC50 (LXRβ) | Ki [2] | EC50 (LXRα) | Compound | selectivity for the LXRβ subtype over the LXRα subtype [2]
5 | > 3330 nM | 6940 nM | > 2500 nM | 17300 nM | CC(C)[C@H]1c2nc3cc(CO)c(S(C)(=O)=O)cc3n2CCN1c1nccc(C(F)(F)F)n1 (single isomer, unassigned) [Compound E2b] | –
6 | 43 nM | 10 nM | 4 nM | 163 nM | CC(C)[C@@H]1c2cc3cc(CO)c(S(C)(=O)=O)cc3n2CCN1c1nccc(C(F)(F)F)n1 (single isomer, unassigned) [Compound E4a, (1-isopropyl-7-(methylsulfonyl)-2-(4-(trifluoromethyl)pyrimidin-2-yl)-1,2,3,4-tetrahydropyrazino[1,2-a]indol-8-yl)methanol] | selective for the LXRβ subtype over the LXRα subtype
7 | 398 nM | – | – | 1100 nM | CC(C)[C@@H]1c2cc3ccc(S(C)(=O)=O)cc3n2CCN1c1nccc(C(F)(F)F)n1 (single isomer, unassigned) [Compound E3a, 1-isopropyl-7-(methylsulfonyl)-2-(4-(trifluoromethyl)pyrimidin-2-yl)-1,2,3,4-tetrahydropyrazino[1,2-a]indole] | –
